From patent US20060194800A1, “Pteridine derivatives as nitric oxide synthase activators” (University of Strathclyde, priority 2005, published 2006)
“Also recorded” adds a separate entry of the source.

Legend:
rat aorta [1] = assay: Rat aorta ring relaxation (endogenous tetrahydrobiopterin present); settings: normal rings, phenylephrine-contracted
Procedure: Rings (5 mm long) of rat pulmonary artery and aorta, were supported on a pair of intraluminal wires at 1 gm tension for one hour and then contracted with their EC50 phenylephrine concentration, which for pulmonary artery was 3.6×10^−8 M (derived from preliminary experiments) and for aorta was 11.8×10^−8 M (from the previously published literature). The rings were then relaxed with carbachol (10 μM). If the relaxation to carbachol was >75%, then the tissues were used to generate dose responses by addition of tetrahydrobiopterin (BH4) or the analogues. Stock BH4 was stored at −20° C. and the dilutions were prepared using saline just before adding the drug into the bath. Solutions of analogues were stored at 4° C. Cumulatively increasing concentrations of the analogues were added to the bath and the extent of relaxation was measured when it had stabilised. Another ring from the same rat was treated in parallel with the solvent for the analogue. The solvent used was NH4OH. The results are shown graphically in FIGS. 1 and 2.

iNOS = target: T1, iNOS (Mus musculus, UniProt P29477); assay: Macrophage assay (iNOS), macrophages depleted of tetrahydrobiopterin by DAHP; type: cell-based
T1 construct: stimulated macrophages that produce iNOS; endogenous in cells; host or cells: primary mouse macrophages (from femur), LPS-stimulated, DAHP-treated

rat lungs = assay: Calcium ionophore-induced pulmonary vasodilation in perfused lungs of rats treated with WSG1002; type: in vivo; settings: 14.1 mg/kg/day s.c.
Procedure: Rats were maintained in a chamber containing atmospheric air at 550 mbar for 14 days.
A group of normotensive and a group of pulmonary hypertensive rats received daily subcutaneous injections of WSG1002 in a dose of 14.1 mg/kg/day during the time that they were in the hypoxic chamber. Other groups of normotensive and pulmonary hypertensive rats had no drugs and are used as control comparison groups. These studies used lungs from the four groups of rats (1) pulmonary hypertensive and treated with WSG1002, (2) normotensive and treated with WSG1002, (3) pulmonary hypertensive and not treated with WSG1002 (4) normotensive and not treated with WSG1002.
The rats lungs were perfused at constant flow through the pulmonary artery with measurement of perfusion pressure and maintained at 37° C. […]
The lungs were precontracted with the thromboxane A2 mimetic, 9,11-dideoxy-11α,9α-epoxymethanoprostaglandin F2α (U46619, 3×10^−5 M) given as a bolus dose via an injection port. […] Following return to 20% O2, the lungs were precontracted again with a bolus dose of U46619 and relaxation responses to the endothelium-dependent vasorelaxant, calcium ionophore were measured by adding it in increasing doses to the perfusate. The data was plotted as concentration-response curves from which IC50 values were calculated using Biograph program by fitting the curves to the Hill equation y=RMax/(1+(x/EC50)ˆP).

rat aorta [2] = assay: BH4 depleted (DAHP) rat aorta relaxation; settings: DAHP 10^-2 M for 6 h, tetrahydrobiopterin depleted
Procedure: Rat pulmonary artery or aorta rings (as above) were placed in 15 ml tubes containing 2-3 ml of MEM (minimal essential medium) solution containing 0.1% bovine serum albumin, 100 U/ml penicillin and […] streptomycin. Some of the tubes in addition received diamino-hydroxy-pyrimidine (DAHP) 10^−2 M, an inhibitor of GTP cyclohydrolase, the rate-limiting step in tetrahydrobiopterin synthesis. The tubes were incubated at 37° C. for six hours. […] After the incubation with DAHP or the control incubation with the medium (MEM) alone, the rings were removed and then their relaxation in response to the analogue (or solvent NH4OH) was tested as above. Dose response curves of DAHP-treated tissues were compared to the control tissues treated in MEM alone for 6 hrs. The results are shown graphically in FIGS. 3 and 4. The above procedures were used to mimic cardiovascular disease, by treating aorta and pulmonary artery rings with an inhibitor of the enzyme GTP cyclohydrolase, which is the rate-limiting step in the formation of tetrahydrobiopterin by cells. Treatment with this inhibitor, DAHP, for 6 hours reduced endogenous tetrahydrobiopterin levels in arteries to 4% of the normal content. […] This was found in both pulmonary artery and aorta (FIGS. 3 and 4). […] The only effect seen was a contraction—the opposite to the action of WSG1002—at the highest concentration of tetrahydrobiopterin. […]

T1 sequence (P29477 whole entry): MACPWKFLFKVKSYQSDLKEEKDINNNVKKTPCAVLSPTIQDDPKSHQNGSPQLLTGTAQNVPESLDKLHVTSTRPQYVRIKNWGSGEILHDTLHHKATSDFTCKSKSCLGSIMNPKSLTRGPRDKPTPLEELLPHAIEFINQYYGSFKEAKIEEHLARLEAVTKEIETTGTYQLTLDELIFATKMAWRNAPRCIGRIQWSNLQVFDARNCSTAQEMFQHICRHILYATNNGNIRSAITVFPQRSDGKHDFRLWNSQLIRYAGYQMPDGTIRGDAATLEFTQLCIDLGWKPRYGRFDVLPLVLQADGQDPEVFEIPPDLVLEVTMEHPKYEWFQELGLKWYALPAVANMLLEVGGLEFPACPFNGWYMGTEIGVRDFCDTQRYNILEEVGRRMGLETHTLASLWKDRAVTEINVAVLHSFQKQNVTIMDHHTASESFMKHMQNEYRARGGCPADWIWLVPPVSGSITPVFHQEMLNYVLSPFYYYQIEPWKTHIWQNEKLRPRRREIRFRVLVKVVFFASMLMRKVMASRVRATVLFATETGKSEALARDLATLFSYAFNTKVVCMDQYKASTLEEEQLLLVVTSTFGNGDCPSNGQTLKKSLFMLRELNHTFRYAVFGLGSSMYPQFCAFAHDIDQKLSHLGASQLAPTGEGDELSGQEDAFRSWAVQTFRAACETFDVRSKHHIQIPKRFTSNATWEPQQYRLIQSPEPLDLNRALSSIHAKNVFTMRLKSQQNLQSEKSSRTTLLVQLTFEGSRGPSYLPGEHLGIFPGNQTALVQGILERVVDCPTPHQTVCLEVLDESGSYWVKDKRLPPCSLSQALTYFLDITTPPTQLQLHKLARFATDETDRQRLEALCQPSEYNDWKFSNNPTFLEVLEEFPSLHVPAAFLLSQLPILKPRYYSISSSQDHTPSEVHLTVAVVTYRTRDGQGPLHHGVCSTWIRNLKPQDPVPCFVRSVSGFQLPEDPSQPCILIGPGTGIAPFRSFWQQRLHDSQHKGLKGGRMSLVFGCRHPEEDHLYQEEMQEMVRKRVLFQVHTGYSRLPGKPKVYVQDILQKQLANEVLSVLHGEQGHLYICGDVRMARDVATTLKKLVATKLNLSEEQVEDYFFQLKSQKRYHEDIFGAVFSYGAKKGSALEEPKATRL

activation at 1 µM (iNOS; 72 h, tested at 1 microM in macrophages, P = promotes NOS activity, read-out: iNOS effect *H155): 20 to 50% | stimulation of nitric oxide synthesis vs controls (iNOS; DAHP 10^-2 M depleted macrophages, 72 hrs): increases were statistically significant | IC50 for calcium ionophore relaxation (rat lungs; normotensive rats, untreated 1.5 μM): 1100 nM | IC50 for calcium ionophore relaxation (rat lungs; pulmonary hypertensive (hypoxic) rats, untreated 1.7 μM): 1200 nM
Structure (SMILES): CC(=O)C1=Nc2c(nc(N)[nH]c2=O)NC1(C)C [wsg1002, 6-Acetyl-2-amino-7,7-dimethyl-7,8-dihydro-3H-pteridin-4-one]
relaxation of rat aorta rings (rat aorta [1]): no action; also recorded: no effect | relaxation of rat aorta rings (rat aorta [2]): significant and physiologically important vasodilatation; also recorded: significant relaxation
